Assay results reported in article PMC6989684 (Scientific Reports, 2020).

Target: T1, M. musculus importin-α (MmImpα), variant α2, truncated 70–529 (Mus musculus, UniProt P52293)
T1 construct: histidine tag; made in house; host or cells: Escherichia coli Rosetta (TM) pLYS
Assay: Isothermal titration calorimetry (ITC), NLS peptide titrated into MmImpα
Assay type: binding
Conditions: 20 °C; for interaction with Impα receptor in words: mutated PAC-3 NLS (basic cluster to Ala), pH 8.0, protein/peptide 1:10 and 1:20; for Stoichiometry (binding): mutated PAC-3 NLS, 20 mM Tris-HCl pH 8.0, 100 mM NaCl, protein/peptide 1:10 and 1:20
Text: The gene encoding the protein Impα from M. musculus was cloned into the pET30a expression vector. Recombinant MmImpα was cloned with a histidine tag and as a truncated protein (70–529) to avoid autoinhibition. The clones were provided by Dr. Bostjan Kobe from the University of Queensland (Australia). The plasmid was expressed in Escherichia coli host strain Rosetta (TM) pLYS (Novagen), and the recombinant protein was purified by affinity chromatography according to Barros et al., 2012[59]. The protein was eluted with a 0.0–0.15 M imidazole linear gradient, concentrated using an Amicon dispositive, and the buffer was changed to 20 mM Tris-HCl, pH 8.0 and 100 mM NaCl for storage. The purified protein was stored at cryogenic temperature.
The samples were submitted to ITC experiments, performed with a MicroCal iTC200 microcalorimeter (GE Healthcare), where the peptide sample was titrated into the protein sample. […] Control experiments were performed by titration of the peptide sample into the buffer, and the data obtained were subtracted from the peptide:protein titrations. Data were processed using Origin 7.0 software (Microcal Software, Northampton, MA) to obtain the thermodynamic constants of the interactions.

Stoichiometry (binding)	Sequence	interaction with Impα receptor in words
No binding	FDAAAAQFDDLNDFFGSVKRRQIN [PAC3Δminor, mutated PAC-3 NLS peptide, N-terminal basic cluster mutated]	no measured interaction with Impα receptor
No binding	FDARKRQFDDLNDFFGSVAAAQIN [PAC3Δmajor, mutated PAC-3 NLS peptide, C-terminal basic cluster mutated]	no measured interaction with Impα receptor
